Measurements from PubChem BioAssay (NCI).
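Test compounds were applied to cells in 96-well plates for 48 hours at 5 doses. Here, GI50 denotes the concentration required for 50% inhibition of growth. The concentration for full growth arrest is given as TGI.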

What was measured:
Assay in all cases: growth of human tumour cells (NCI), 48 h
[1] = system: K-562 leukemia
[2] = system: 786-0 renal
[3] = system: HT29 colon
[4] = system: HL-60(TB) leukemia
[5] = system: EKVX NSCLC
[6] = system: UACC-257 melanoma
[7] = system: NCI-H460 lung
[8] = system: SK-MEL-28 melanoma
[9] = system: OVCAR-4 ovarian
[10] = system: A549 NSCLC
[11] = system: IGROV1 ovarian
[12] = system: OVCAR-8 ovarian
[13] = system: SK-MEL-2 melanoma
[14] = system: CCRF-CEM leukemia
[15] = system: HS 578T breast
[16] = system: M14 melanoma
[17] = system: SK-OV-3 ovarian
[18] = system: NCI-H522 lung
[19] = system: UACC-62 melanoma
[20] = system: HOP-92 NSCLC
[21] = system: RPMI-8226 leukemia
[22] = system: OVCAR-5 ovarian
[23] = system: MCF7 breast
[24] = system: MDA-MB-435
[25] = system: HCC-2998 colon
[26] = system: HOP-62 NSCLC
[27] = system: SNB-75 CNS
[28] = system: ACHN renal
[29] = system: SF-268 CNS
[30] = system: LOX IMVI melanoma
[31] = system: SW-620 colon
[32] = system: NCI/ADR-RES ovarian
[33] = system: MDA-MB-231 breast
[34] = system: NCI-H23 lung
[35] = system: A498 renal
[36] = system: SF-539 CNS
[37] = system: HCT-116 colon
[38] = system: HCT-15 colon
[39] = system: DU-145 prostate
[40] = system: COLO 205 colon
[41] = system: CAKI-1 renal
[42] = system: SNB-19 CNS
[43] = system: TK-10 renal
[44] = system: BT-549 breast
[45] = system: SN12C renal
[46] = system: PC-3 prostate
[47] = system: SR leukemia
[48] = system: UO-31 renal
[49] = system: OVCAR-3 ovarian
[50] = system: KM12 colon
[51] = system: U251 CNS
[52] = system: T-47D breast
[53] = system: SK-MEL-5 melanoma
[54] = system: RXF 393 renal
[55] = system: SF-295 CNS
[56] = system: MALME-3M melanoma
[57] = system: NCI-H226 lung

In the case of COC12C=C/C(=C(/C(=O)OCc3csc(SC)n3)C(=O)CCCCCCCCC3(OC)C=C/C(=C(/C(=O)OCc4cnc(SC)s4)C(=O)CCCCCCCC1)O3)O2 (centres undefined), the GI50 [1] is reported as 3.19 µM, the TGI [1] is reported as > 100 µM and the GI50 [2] is reported as 4.93 µM. The TGI [2] was 26.1 µM, the GI50 [3] was 4.41 µM and the TGI [3] was > 100 µM. The GI50 [4] was 3.1 µM, the TGI [4] was > 100 µM and the GI50 [5] was 6.38 µM. For the same compound, the TGI [5] was > 100 µM, the GI50 [6] was 6.01 µM and the TGI [6] was > 100 µM. For the same compound, the GI50 [7] was 4.57 µM, the TGI [7] was > 100 µM and the GI50 [8] was 0.955 µM. The TGI [8] was > 100 µM, the GI50 [9] was 3.19 µM and the TGI [9] was > 100 µM. For the same compound, the GI50 [10] was 4.65 µM, the TGI [10] was > 100 µM and the GI50 [11] was 3.89 µM. The TGI [11] was 83.6 µM, the GI50 [12] was 2.08 µM and the TGI [12] was 32.4 µM. The GI50 [13] was 3.69 µM, the TGI [13] was 16.6 µM and the GI50 [14] was 0.455 µM. The TGI [14] was > 100 µM, the GI50 [15] was 4.52 µM and the TGI [15] was 57.6 µM. The GI50 [16] was 2.62 µM, the TGI [16] was > 100 µM and the GI50 [17] was 9.06 µM. For the same compound, the TGI [17] was > 100 µM, the GI50 [18] was 1.5 µM and the TGI [18] was 21.1 µM. For the same compound, the GI50 [19] was 3.51 µM, the TGI [19] was 35.2 µM and the GI50 [20] was 12.3 µM. For the same compound, the TGI [20] was 32.3 µM, the GI50 [21] was 0.946 µM and the TGI [21] was > 100 µM. The GI50 [22] was 7.63 µM, the TGI [22] was > 100 µM and the GI50 [23] was 1.13 µM. For the same compound, the TGI [23] was > 100 µM, the GI50 [24] was 1.68 µM and the TGI [24] was 5.32 µM. It also gave a GI50 [25] of 2.34 µM, a TGI [25] of 5.11 µM and a GI50 [26] of 4.48 µM. The TGI [26] was 70.6 µM, the GI50 [27] was 7.61 µM and the TGI [27] was 28.9 µM. It also gave a GI50 [28] of 2.51 µM, a TGI [28] of 28.9 µM and a GI50 [29] of 5.75 µM. For the same compound, the TGI [29] was > 100 µM, the GI50 [30] was 1.2 µM and the TGI [30] was 3.53 µM. For the same compound, the GI50 [31] was 3.66 µM, the TGI [31] was > 100 µM and the GI50 [32] was 31.3 µM. The TGI [32] was > 100 µM, the GI50 [33] was 2.51 µM and the TGI [33] was 26.2 µM. For the same compound, the GI50 [34] was 2.5 µM, the TGI [34] was > 100 µM and the GI50 [35] was 2.44 µM. For the same compound, the TGI [35] was 21.8 µM, the GI50 [36] was 4.03 µM and the TGI [36] was 19.8 µM. For the same compound, the GI50 [37] was 0.439 µM, the TGI [37] was 10.9 µM and the GI50 [38] was 17 µM. The TGI [38] was > 100 µM, the GI50 [39] was 5.39 µM and the TGI [39] was > 100 µM. The GI50 [40] was 3.44 µM, the TGI [40] was > 100 µM and the GI50 [41] was 70 µM. For the same compound, the TGI [41] was > 100 µM, the GI50 [42] was 8.6 µM and the TGI [42] was > 100 µM. For the same compound, the GI50 [43] was 15.8 µM, the TGI [43] was 74.8 µM and the GI50 [44] was 4.53 µM. For the same compound, the TGI [44] was 69.8 µM, the GI50 [45] was 3.63 µM and the TGI [45] was > 100 µM. For the same compound, the GI50 [46] was 4.16 µM, the TGI [46] was > 100 µM and the GI50 [47] was 2.05 µM. The TGI [47] was > 100 µM, the GI50 [48] was 4.96 µM and the TGI [48] was > 100 µM. For the same compound, the GI50 [49] was 2.74 µM, the TGI [49] was > 100 µM and the GI50 [50] was 3.1 µM. The TGI [50] was > 100 µM, the GI50 [51] was 3.98 µM and the TGI [51] was 43.6 µM. For the same compound, the GI50 [52] was 2.94 µM, the TGI [52] was > 100 µM and the GI50 [53] was 1.7 µM. The TGI [53] was 3.56 µM, the GI50 [54] was 1.75 µM and the TGI [54] was 3.52 µM. For the same compound, the GI50 [55] was 3.33 µM, the TGI [55] was 25.7 µM and the GI50 [56] was 3.84 µM. The TGI [56] was 39.7 µM, the GI50 [57] was 3.48 µM and the TGI [57] was 17.1 µM.
